Results on 1 compound are retold here after patent US20160192658A1 (priority 2013, published 2016).

The data set is described as follows: in vitro. As to conditions: human.

`NC(=O)c1ncn([C@@H]2O[C@H](CO)[C@@H](O)[C@H]2O)n1` [Ribavirin, ribavirin] showed a CC50 at 5 days greater than 200 µM.
